Data: patent publication US20250221405A1, “ROOT NODULE FORMATION-PROMOTING COMPOSITION, AND ROOT HAIR FORMATION-PROMOTING COMPOSITION” (KANEKA CORPORATION, priority 2022, published 2025)

Legend:
soybeans (Fukuyutaka) [1] = test: Experimental Example 2: soil irrigation with composition comprising rhizobium materials, number of root nodules; type: in vivo, soybean; details: Table 2-2, irrigation
Procedure: (§1) For each of the following treatment, to a mixture of rhizobium materials (rhizobium and azospirillum) mixed with water at a proportion of 10 g/L, SF, SL, or RL was added in the following amount to prepare a solution comprising the rhizobium materials and SF, SL, or RL (a composition for promoting root nodule formation).
A 9 cm poly pot was filled with culture soil and seeded with three seeds of soybeans (Fukuyutaka) in each pot.
(§2) After seeding, the seeds were cultivated in a greenhouse set at 28° C. during the day (14h) and 18° C. at night (10h).
(§3) Seven days after the seeding, the soybeans in each pot were thinned to one plant, and each pot was irrigated with 4.3 ml of the composition for promoting root nodule formation (in the treatment T1, a mixture of rhizobium materials (rhizobium and azospirillum) mixed with water at a proportion of 10 g/L).
(§4) Twenty-one days after the irrigation, the roots were washed with water so as not to remove root nodules, the culture soil was removed, and then, the root nodules formed on the roots were collected.
(§5) After the seeding, each pot was fertilized with ½ Hoagland solution (50 mL) once a week. In addition, experiments were conducted on eight pots (eight plants) in each treatment.
(§6) A plurality of experiments were conducted by changing the type of the composition for promoting root nodule formation and the like. Tables 2-1 and 2-2 show the date of seeding, the date of irrigating, the date of investigating the number of root nodules, the composition for promoting root nodule formation, and the investigation result of the number of root nodules. Note that the number of root nodules is indicated by a relative value with T1 taken as 100, with a numerical value in parentheses indicating the average number of root nodules actually measured (pieces/plant).

soybeans (Fukuyutaka) [2] = test: Experimental Example 4: soil irrigation with biosurfactant and/or KVP, root nodule number and weight, root weight; type: in vivo, soybean; details: with rhizobium materials
Procedure: as §1, with “treatments,” for “treatment,”
A 9 cm poly pot was filled with sterilized fertilizer-free culture soil (Heiwa) and seeded three seeds of soybeans (Fukuyutaka) in each pot.
as §2, §3, §4, §5
as §6, with “4-1” for “2-1”, “4-2” for “2-2”, “Tl” for “T1”, “(pieces/plant). In addition, fresh root nodule weight means the weight of root nodules before drying on the day of collection and is indicated by a relative value with Tl taken as 100. Dried underground part weight means the weight of roots dried for 48 hours at 80° C. and indicated by a relative value with Tl taken as 100.” for “(pieces/plant).”

soybeans (Fukuyutaka) [3] = test: Experimental Example 1: seed coating, number of root nodules; type: in vivo, soybean; details: Table 1-2
Procedure: (§7) A solution of SF, SL, or RL dissolved in water (a composition for promoting root nodule formation) as the following amount in each of the following treatments was prepared. The seeds of soybeans (Fukuyutaka) were coated using the solution in an amount of 800 μL/100 g seed to obtain coated seeds.
(§8) A 9 cm poly pot was filled with culture soil and seeded with three coated seeds in each pot.
(§9) After seeding, the coated seeds were cultivated in a greenhouse set at 28° C. during the day (14h) and 18° C. at night (10h).
Seven days after the seeding, the soybeans in each pot were thinned to one plant, and each pot was irrigated with 4.3 ml of a mixture of rhizobium materials (rhizobium and azospirillum) mixed with water at a proportion of 10 g/L.
as §4
After the seeding, each pot was fertilized with ½ Hoagland solution once a week. In addition, experiments were conducted on eight pots (eight plants) in each treatment.
as §6, with “1-1” for “2-1”, “1-2” for “2-2”, “nodules, the amount of SF, SL, or RL in” for “nodules,”, “Tl” for “T1”

soybeans (Fukuyutaka) [4] = test: Experimental Example 3: seed coating with biosurfactant and/or KVP, number of root nodules; type: in vivo, soybean; details: Table 3-2
Procedure: as §7, with “RL and/or KVP” for “RL”
as §8, §9
Seven days after the seeding, the soybeans in each pot were thinned to one plant, and each pot was irrigated with 4.3 mL of a mixture of rhizobium materials (rhizobium and azospirillum) mixed with water at a proportion of 10 g/L.
as §4, §5
as §6, with “3-1” for “2-1”, “3-2” for “2-2”, “amounts” for “date”, “SF, SL, or RL and/or KVP in” for “seeding, the date of irrigating, the date of investigating the number of root nodules,”, “formation” for “formation,”, “Tl” for “T1”

[5] = test system: Japanese mustard spinach (Haru no Senbatsu); test: Experimental Example 5: foliar application, microscopic observation of root hair; type: in vivo; parameters: key: those with a significant root hair increase observed were evaluated as AA; those with a root hair increase observed were evaluated as BB; those with no root hair increase observed were evaluated as CC; those with an overall or partial root hair decrease observed were evaluated as DD
Procedure: An observation tank formed with ½ MS agar medium (0.8% agar) was prepared in an acrylic tank. Japanese mustard spinach (Haru no Senbatsu) was seeded near the surface of the observation tank. After seeding, the Japanese mustard spinach was cultivated in an incubator set in a light period (6:00-18:00, temperature 26° C., illuminance 120 μmol/m^2·s) and a dark period (18:00-6:00, temperature 18° C.). Twelve to fourteen days after the seeding, the following liquid (a composition for promoting root hair formation) was applied on the leaf surfaces of the plant body (foliar application) so as not to drip on the agar in each of the following treatments. […] A plurality of experiments were conducted by changing the date of seeding, the date of foliar application, the date of observation, and the type of the composition for promoting root hair formation and the like. Tables 5 to 9 show the composition for promoting root hair formation, the outline of operation and the observation results of root hair.

[6] = Table 4-2, single agent diluted 1000 times
[7] = Table 4-2, single agent diluted 10000 times
[8] = seed coating SL or RL 0.5 g/t seed (diluted 16000 times)
[9] = seed coating SL or RL 5 g/t seed (diluted 1600 times)

Substance: rhamnolipid [RL]
- Number of Root Nodules, average number actually measured (soybeans (Fukuyutaka) [1]; diluted 1000 times): 13.6 pieces/plant
- Number of Root Nodules, relative value with T1 taken as 100 (soybeans (Fukuyutaka) [1]; diluted 1000 times): 116
- Number of Root Nodules, average number actually measured (soybeans (Fukuyutaka) [1]; diluted 5000 times): 13.6 pieces/plant
- Number of Root Nodules, relative value with T1 taken as 100 (soybeans (Fukuyutaka) [1]; diluted 5000 times): 116
- Number of Root Nodules, average number actually measured (soybeans (Fukuyutaka) [1]; diluted 10000 times): 13.4 pieces/plant
- Number of Root Nodules, relative value with T1 taken as 100 (soybeans (Fukuyutaka) [1]; diluted 10000 times): 115
- Dried Underground Part Weight, relative value with T1 taken as 100 (soybeans (Fukuyutaka) [2]; [6]): 105
- Fresh Root Nodule Weight, relative value with T1 taken as 100 (soybeans (Fukuyutaka) [2]; [6]): 115
- Number of Root Nodules, average number actually measured (soybeans (Fukuyutaka) [2]; [6]): 19.5 pieces/plant
- Number of Root Nodules, relative value with T1 taken as 100 (soybeans (Fukuyutaka) [2]; [6]): 116
- Dried Underground Part Weight, relative value with T1 taken as 100 (soybeans (Fukuyutaka) [2]; [7]): 105
- Fresh Root Nodule Weight, relative value with T1 taken as 100 (soybeans (Fukuyutaka) [2]; [7]): 114
- Number of Root Nodules, average number actually measured (soybeans (Fukuyutaka) [2]; [7]): 18.5 pieces/plant
- Number of Root Nodules, relative value with T1 taken as 100 (soybeans (Fukuyutaka) [2]; [7]): 110
- Number of Root Nodules, average number actually measured (soybeans (Fukuyutaka) [3]; seed coating 1 g/t seed): 16.0 pieces/plant
- Number of Root Nodules, relative value with T1 taken as 100 (soybeans (Fukuyutaka) [3]; seed coating 1 g/t seed): 137
- Number of Root Nodules, average number actually measured (soybeans (Fukuyutaka) [3]; seed coating 10 g/t seed): 13.2 pieces/plant
- Number of Root Nodules, relative value with T1 taken as 100 (soybeans (Fukuyutaka) [3]; seed coating 10 g/t seed): 113
- Number of Root Nodules, average number actually measured (soybeans (Fukuyutaka) [3]; seed coating 50 g/t seed): 15.3 pieces/plant
- Number of Root Nodules, relative value with T1 taken as 100 (soybeans (Fukuyutaka) [3]; seed coating 50 g/t seed): 131
- Number of Root Nodules, average number actually measured (soybeans (Fukuyutaka) [4]; [8]): 24.6 pieces/plant
- Number of Root Nodules, relative value with T1 taken as 100 (soybeans (Fukuyutaka) [4]; [8]): 105
- Number of Root Nodules, average number actually measured (soybeans (Fukuyutaka) [4]; [9]): 25.3 pieces/plant
- Number of Root Nodules, relative value with T1 taken as 100 (soybeans (Fukuyutaka) [4]; [9]): 107
- Observation Result (root hair) ([5]; Table 7, aqueous solution diluted 1000 times): BB
- Observation Result (root hair) ([5]; Table 7, aqueous solution diluted 2000 times): BB
- Observation Result (root hair) ([5]; Table 7, aqueous solution diluted 5000 times): BB

Substance: sophorolipid [SL]
- Number of Root Nodules, average number actually measured (soybeans (Fukuyutaka) [1]; diluted 1000 times): 15.7 pieces/plant
- Number of Root Nodules, relative value with T1 taken as 100 (soybeans (Fukuyutaka) [1]; diluted 1000 times): 134
- Number of Root Nodules, average number actually measured (soybeans (Fukuyutaka) [1]; diluted 5000 times): 12.1 pieces/plant
- Number of Root Nodules, relative value with T1 taken as 100 (soybeans (Fukuyutaka) [1]; diluted 5000 times): 104
- Number of Root Nodules, average number actually measured (soybeans (Fukuyutaka) [1]; diluted 10000 times): 11.9 pieces/plant
- Number of Root Nodules, relative value with T1 taken as 100 (soybeans (Fukuyutaka) [1]; diluted 10000 times): 102
- Dried Underground Part Weight, relative value with T1 taken as 100 (soybeans (Fukuyutaka) [2]; [6]): 102
- Fresh Root Nodule Weight, relative value with T1 taken as 100 (soybeans (Fukuyutaka) [2]; [6]): 113
- Number of Root Nodules, average number actually measured (soybeans (Fukuyutaka) [2]; [6]): 18.5 pieces/plant
- Number of Root Nodules, relative value with T1 taken as 100 (soybeans (Fukuyutaka) [2]; [6]): 110
- Dried Underground Part Weight, relative value with T1 taken as 100 (soybeans (Fukuyutaka) [2]; [7]): 185
- Fresh Root Nodule Weight, relative value with T1 taken as 100 (soybeans (Fukuyutaka) [2]; [7]): 105
- Number of Root Nodules, average number actually measured (soybeans (Fukuyutaka) [2]; [7]): 17.8 pieces/plant
- Number of Root Nodules, relative value with T1 taken as 100 (soybeans (Fukuyutaka) [2]; [7]): 105
- Number of Root Nodules, average number actually measured (soybeans (Fukuyutaka) [3]; seed coating 0.1 g/t seed): 11.8 pieces/plant
- Number of Root Nodules, relative value with T1 taken as 100 (soybeans (Fukuyutaka) [3]; seed coating 0.1 g/t seed): 101
- Number of Root Nodules, average number actually measured (soybeans (Fukuyutaka) [3]; seed coating 1 g/t seed): 15.3 pieces/plant
- Number of Root Nodules, relative value with T1 taken as 100 (soybeans (Fukuyutaka) [3]; seed coating 1 g/t seed): 131
- Number of Root Nodules, average number actually measured (soybeans (Fukuyutaka) [3]; seed coating 10 g/t seed): 13.3 pieces/plant
- Number of Root Nodules, relative value with T1 taken as 100 (soybeans (Fukuyutaka) [3]; seed coating 10 g/t seed): 114
- Number of Root Nodules, average number actually measured (soybeans (Fukuyutaka) [4]; [8]): 24.5 pieces/plant
- Number of Root Nodules, relative value with T1 taken as 100 (soybeans (Fukuyutaka) [4]; [8]): 104
- Number of Root Nodules, average number actually measured (soybeans (Fukuyutaka) [4]; [9]): 24.9 pieces/plant
- Number of Root Nodules, relative value with T1 taken as 100 (soybeans (Fukuyutaka) [4]; [9]): 106
- Observation Result (root hair) ([5]; Table 6, aqueous solution diluted 1000 times): BB
- Observation Result (root hair) ([5]; Table 6, aqueous solution diluted 2000 times): BB
